Measured values from patent US9428539B2, “2β,3α,5α-trihydroxy-androst-6-one and preparation methods and use thereof” (Guangzhou Cellprotek Pharmaceutical Co., Ltd., priority 2013, dated 2016).

Assays:
[1] = test system: cerebellar granule neurons; experiment: Glutamate-induced damage of cerebellar granule neurons (FDA staining); type: cell-based; settings: glutamate 100 μM, glycine 10 μM, Mg2+-free Locke buffer; 30 min pre-incubation; FDA staining after 24 h
Procedure: Cerebellar granule neurons cultured in vitro for 8 days were grouped. Treatment groups received MK801 or YC-10 at various concentrations, followed by incubation for 30 min. Following that, model group and all treatment groups were replaced with Mg^2+-free Locke buffer, and added with glutamate (100 μM final concentration), Glycine (10 μM final concentration) and drugs at respective concentrations. Cells were incubated at 37° C. for 30 minutes, replaced with original medium, incubated for further 24 h, followed by FDA staining.

[2] = test system: LN18 cells; experiment: MTT cell survival assay, LN18 cells; type: cell-based; settings: 250, 500, 1000 μM, 24 h post treatment, P<0.05 vs control
Procedure: (§1) Cell seeding and treatment: Logarithmic phase of LN18 and DBTRG-50MG cells were prepared to cell suspensions with complete medium. Cells were seeded into a 96-well plate at a density of 100 μl per well, 3×10^4/ml. 12 h post seeding, full cell adherence was observed. To the wells was added YC-10 to a final concentration of YC-10 being 250, 500, and 1000 μM, with each concentration group having 5 repeats.
(§2) Reaction of MTT with succinate dehydrogenase: At 24th h of culturing, 10 μl (5 mg/ml) of MTT was added to each well, followed by 4 h incubation. At this time, granulate violet formazan crystalline can be observed in live cells by microscopy.
(§3) Formazan particle dissolution: Supernatant was carefully discharged. To the wells was added DMSO at 100 μl/well to dissolve the crystalline. The mixture was vibrated on a mini oscillator for 5 min and measured for optical density (OD value) at 570 nm for each well by enzyme-linked immunometric assay.
(§4) Each group of experiments was repeated 3 times.
(§5) Survival (%)=OD value in treatment group/OD value in control group*100%.
(§6) All data was presented as mean±SD. SPSS 13.0 statistics package software was used. One-Way ANOVA and t-test were used to analyze the data. Sigmaplot software was used to give FIG. 1.

[3] = test system: retinal ganglion cell; experiment: Eye high pressure and ischemia injury model, retinal ganglion cell death; type: in vivo; settings: rats; 20 mg/kg via tail vein before modeling, 2 h, Day 2, Day 3; 130 mmHg, 1 h ischemia; pathological examination at Day 7
Procedure: 10% chloral hydrate was used to anesthetize rats. Eyes were subject to topical anesthesia. Perfusion apparatus was placed 176 cm above rats' eyeballs (resulting in 130 mmHg intra-ocular pressure). 30 G ½ syringe needle was carefully inserted into anterior chamber. The eyeballs became white and starting time of ischemia was recorded. 1 h post ischemia, the syringe needle was quickly withdrawn and eyes were cared by antibiotic eyedrops. Rats were raised back to cage. Drugs were administered 20 before modeling for solvent group and YC-10 group (20 mg/kg). At 2 h, Day 2 and Day 3 post modeling, rats were treated with YC-10 via tail vein. At Day 7 post modeling, eyeballs were obtained for pathological examination.

[4] = test system: retinal ganglion cell; experiment: Optic nerve clamping injury model, retinal ganglion cell death; type: in vivo; settings: rats; 20 mg/kg via tail vein 20 min before surgery, 2 h post operation, Day 2, Day 3; pathological examination at Day 7
Procedure: 10% chloral hydrate was used to anesthetize rats. YC-10 (20 mg/kg) or solvents were administered via tail vein 20 min before surgery. Eyes were subject to topical anesthesia. Conjunctiva was cut along limbus cornea with corneal scissors and intraocular microforceps. Lateral rectus was bluntly dissected to fully expose optic nerve. A cross action forceps was used to clamp the optic nerve for 5 seconds at 2 mm posterior to the eyeball, and then released. Antibiotic eye ointment was applied post operation to prevent infection. Drugs were administered at 2 h post operation, Day 2, and Day 3. Eyeballs were obtained for pathological examination at Day 7.

[5] = test system: DBTRG-50MG cells; experiment: MTT cell survival assay, DBTRG-50MG cells; type: cell-based; settings: 250, 500, 1000 μM, 24 h post treatment, P<0.05 vs control
Procedure: as §1, §2, §3, §4, §5, §6

[6] = test system: KM mice; experiment: Maximal tolerance dose test; type: in vivo
Procedure: YC-10 injections at concentration of 25 mg/mL were prepared with 40% hydroxypropyl cyclodextrin, and were injected through tail vein to 30 KM mice (half males and half females, weighted 18-22 g) at does of 0.1 mL/10 g.
The mice were continuously observed. All mice behaved and ate as usual, with bright coat color and fine fur. No abnormal secretions in mouth, eyes, nose, or ears were observed. Mice defecated normally. Mice weights were slighted increase. No mice died. Mice were sacrificed after 14 days, dissected and visual examined on important organs such as heart, liver, spleen, kidney, and gastrointestinal. No abnormal changes were observed.

[7] = test system: cerebellar granule neurons; experiment: Low potassium-induced death of cerebellar granule neurons (FDA staining); type: cell-based; settings: 50 μM, 5K (5 mM KCl) BME medium, 24 h
Procedure: Cerebellar granule neurons were cultured in vitro for 8 days. Treatment groups received YC-10 at various concentrations and incubated for 30 min. Following that, model group and all treatment groups were replaced with 5K (i.e., 5 mM KCl) BME medium (25K BME for control group), and added with YC-10 at respective concentrations. Cells were incubated at 37° C. for 24 h, followed by FDA staining.

Row | SMILES | protection of cerebellar granule neurons from glutamate-induced damage [1] | cell survival rate (tumor cell killing) [2] | protection of retinal ganglion cell from eye high pressure and ischemia-induced death [3] | protection of retinal ganglion cell from optic nerve clamping injury-induced death [4] | cell survival rate (tumor cell killing) [5] | toxicity to mouse (behaviour, weight, organ examination) ([6]; 250 mg/kg tail vein injection in 40% hydroxypropyl cyclodextrin, observed 14 days) | mortality ([6]; 250 mg/kg tail vein injection, 14 days) | protection of cerebellar granule neurons from low potassium-induced death [7]
1 | C[C@]12N[C@H](Cc3ccccc31)c1ccccc12 [MK801, reference compound] | able to prevent cerebella granule neurons from glutamate-induced injury | – | – | – | – | – | – | –
2 | C[C@@]12CCCC1C1CC(=O)[C@@]3(O)C[C@H](O)[C@@H](O)C[C@]3(C)C1CC2 (stereo partly drawn) [YC-10, 2β,3α,5α-trihydroxy-androst-6-one] | effective in preventing glutamate-induced excitotoxin damage of cerebellar granule neurons in a dose-dependent manner | killed tumor cells in a dose-dependent manner | reduce or prevent from ischemia-induced death | slow down or prevent from clamping injury-induced death | killed tumor cells in a dose-dependent manner | nontoxic | No mice died | could prevent neuron from low potassium-induced death
